Experimental data taken from patent US20100331338A1, “Glucokinase Activators” (Merck Patent GMBH, priority 2008, published 2010).
pEC50: −log10 of the molar value.

Biological target: T1, hGK (Homo sapiens, UniProt P35557)
T1 sequence (P35557 1-465): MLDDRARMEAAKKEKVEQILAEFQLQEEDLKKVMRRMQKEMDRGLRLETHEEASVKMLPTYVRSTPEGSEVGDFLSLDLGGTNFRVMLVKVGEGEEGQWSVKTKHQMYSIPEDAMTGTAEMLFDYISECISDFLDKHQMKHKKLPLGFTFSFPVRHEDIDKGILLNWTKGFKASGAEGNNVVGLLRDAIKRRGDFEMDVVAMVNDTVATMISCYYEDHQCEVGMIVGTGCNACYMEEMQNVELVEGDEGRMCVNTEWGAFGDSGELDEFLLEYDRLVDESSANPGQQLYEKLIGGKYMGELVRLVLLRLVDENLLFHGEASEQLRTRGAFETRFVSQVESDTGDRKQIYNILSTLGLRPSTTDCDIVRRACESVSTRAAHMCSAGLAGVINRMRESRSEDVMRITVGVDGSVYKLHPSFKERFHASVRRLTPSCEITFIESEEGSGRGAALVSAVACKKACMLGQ
Assay: Glucokinase Activation Screening Assay (coupled enzyme assay with PK/LDH)
Type: biochemical
Settings: 2 mM glucose; for hGK fold activation at 30 μM: fold activation at 30 μM compound
Protocol: Glucokinase Activation Screening Assay
GK activity (human or rat enzyme) is measured by a coupled enzyme assay using pyruvate kinase (PK) and lactate dehydrogenase (LDH) as coupling enzymes. GK activity is calculated from the decline in NADH monitored photometrically with a microtiter plate (MTP) reader at 340 nm.
For screening purposes, the GK assay is routinely run in a 384-MTP format, in a total volume of 33 μl/well. 10 μl of the ATP-regeneration solution (in HEPES-buffer*, pH 7.0, 6.73 U/ml pyruvate kinase, 6.8 U/ml lactate dehydrogenase) and 10 μl of the glucokinase-/glucose solution (15 μg/ml, 6.6 mM glucose in HEPES-buffer*, pH 7.0; the concentration of the glucose stock-solution was 660 mM in Millipore H2O) were mixed together with […] of a 10% DMSO solution (in HEPES-buffer*, pH 7.0) containing 3.3-fold the amounts of the compounds to achieve final compound concentrations in the range between 1 nM to 30 μM (sometimes 300 μM) in the assay solution (s. below). The solutions were mixed for 5 sec, and after a centrifugation at 243×g for 5 min, the solutions were preincubated for 25 min at room temperature.
The reaction was started by the addition of 10 μl of the NADH-/ATP-solution (4.29 mM NADH, 4.95 mM ATP, in HEPES-buffer*). The MTP was shaken for 5 sec., and then, the absorbance at 340 nm was monitored continuously in a MTP-reader (TECAN Spectro fluor plus) for the next 27 min (with a MTP-cycling time of 199 sec.). The final concentrations of the various components were as follows: 49.5 mM Hepes, pH 7.0, 1.49 mM PEP,1,3 mM NADH, 49.5 mM KCl, 4.96 mM MgCl2, 1.5 mM Mg-ATP, 1.98 mM DTT, 2.04 U/ml pyruvate kinase, 2.06 U/ml lactate-dehydrogenase, 0.91% DMSO, 0.15 μg/well glucokinase, and test compounds in the range between 1 nM and 300 μM.
The change in the optical density (ΔOD340 nm) in the presence of the compound was expressed relative to the ΔOD340 nm, ctrl of the control incubation (in the presence of 2 mM glucose and 0.91% DMSO), taking into account the optical density of the blank sample (incubation in the absence of 2 mM glucose). For the determination of the half maximal effective concentration (EC50), the %-Ctrl-values were plotted in a semi-logarithmic graph against the conc. of the compound of interest. The data points were fitted to a sigmoid curve function (f(x)=((%-Ctrlmax%-Ctrlmin)/(1−(EC50/x**^n(Hill)))+%-Ctrlmin)) by a non-linear regression analysis.
* Hepes-buffer (50 mM Hepes, pH 7.0, 5 mM MgCl2, 50 mM KCl, 1.5 mM PEP, 0.1% BSA). DTT was added to the Hepes-buffer from a 200× stock solution (in Millipore H2O) freshly each day. The final concentration of DTT in the Hepes-buffer is 2 mM.

SMILES | hGK fold activation at 30 μM | pEC50
CCCc1cc(C(=O)Nc2nc(CC(=O)O)cs2)cs1 [Example 46, {2-[(5-Propyl-thiophene-3-carbonyl)-amino]-thiazol-4-yl}-acetic acid] | 2.1 | 
CCN(CC)S(=O)(=O)c1cc(C(=O)Nc2nccs2)sc1C [Example 48, 4-Diethylsulfamoyl-5-methyl-thiophene-2-carboxylic acid thiazol-2-ylamide] | 6.4 | 5.41
Cc1sc(C(=O)Nc2nccs2)cc1S(=O)(=O)NCc1ccccc1 [Example 49, 4-Benzylsulfamoyl-5-methyl-thiophene-2-carboxylic acid thiazol-2-ylamide] | 1.3 | 
Cc1sc(C(=O)Nc2nccs2)cc1S(=O)(=O)N(C)C [Example 50, 4-Dimethylsulfamoyl-5-methyl-thiophene-2-carboxylic acid thiazol-2-ylamide] | 2.6 | 5.41
CCCOc1sc(C(=O)Nc2nccs2)cc1S(C)(=O)=O [Example 52, 4-Methanesulfonyl-5-propoxy-thiophene-2-carboxylic acid thiazol-2-ylamide] | 2.1 | 5.00
CCCc1cc(C(=O)Nc2nccs2)cs1 [Example 53, 5-Propyl-thiophene-3-carboxylic acid thiazol-2-ylamide] | 5.6 | 5.00
